Read-outs that look alike come from different tables or passages of the source.
Experiments:
Format in all cases: cell-based
Aca-ACR-16 [1] = target: T1, Aca-ACR-16 (Ancylostoma caninum, UniProt A0A5C1L5J1); assay: two-electrode voltage clamp, Xenopus oocytes, inhibition of ACh current; details: read-out: % inhibition at 10 μM
T1 sequence (A0A5C1L5J1 21-497): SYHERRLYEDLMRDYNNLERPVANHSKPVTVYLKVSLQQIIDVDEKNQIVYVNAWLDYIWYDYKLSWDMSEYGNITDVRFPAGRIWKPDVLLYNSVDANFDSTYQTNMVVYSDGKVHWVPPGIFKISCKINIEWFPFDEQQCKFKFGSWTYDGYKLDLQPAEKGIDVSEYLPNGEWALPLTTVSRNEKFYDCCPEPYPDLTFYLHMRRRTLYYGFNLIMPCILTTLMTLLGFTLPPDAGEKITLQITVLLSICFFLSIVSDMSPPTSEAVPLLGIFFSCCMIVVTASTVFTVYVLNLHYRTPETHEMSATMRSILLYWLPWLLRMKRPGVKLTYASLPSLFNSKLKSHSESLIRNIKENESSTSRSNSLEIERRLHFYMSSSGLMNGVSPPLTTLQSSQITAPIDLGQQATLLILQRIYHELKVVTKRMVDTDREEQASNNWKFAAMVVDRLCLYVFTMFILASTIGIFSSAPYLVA

Aca-ACR-16 [2] = target: T1, Aca-ACR-16; assay: as above; details: read-out: % inhibition at 10 μM; remark: listed apart in the source
Aca-ACR-16 [3] = target: T1, Aca-ACR-16; assay: two-electrode voltage clamp, Xenopus oocytes, peak current; details: agonist; 10 s application; co-expressed with Asu-RIC-3
Aca-ACR-16 [4] = target: T1, Aca-ACR-16; assay: as above

| SMILES | inhibition at 10 µM (Aca-ACR-16 [1]) [%] | also measured |
| --- | --- | --- |
| CN1C(=O)[C@]23C[C@H]4C(C)(C)[C@]5(CNc6c5ccc5c6OC=CC(C)(C)O5)C[C@@]41CN2CC[C@@]3(C)O [derquantel] | 72 ± 5.6 | – |
| CO[C@H]1CC=C2CCN3CCC4=C(CC(=O)OC4)[C@]23C1 [dihydro-β-erythroidine] | – | inhibition at 10 µM (Aca-ACR-16 [2]): 98.8 ± 0.4% |
| COc1cc2c3cc1Oc1cc(ccc1O)C[C@@H]1c4c(cc(OC)c(O)c4Oc4ccc(cc4)C[C@@H]3N(C)CC2)CC[N+]1(C)C [d-tubocurarine] | 100 ± 0.1 | – |
| Clc1ccc(C2CC3CCC2N3)cn1 (stereo not drawn) [epibatidine] | – | % of 100 μM ACh current at 100 μM (Aca-ACR-16 [3]): 85.0 ± 4.0% |
| CNC1(C)C2CCC(C2)C1(C)C (stereo not drawn) [mecamylamine] | 98.8 ± 0.6 | – |
| CC(=O)OCC[N+](C)(C)C [acetylcholine] | – | EC50 (Aca-ACR-16 [4]): 50 µM |

Source: publication PMC7869652 (Invertebrate neuroscience : IN, 2019)
